Several values for one entry are separate records, joined by “and”; a condition that tells them apart may be missing. Identical values can stand only once.
Experiments:
wt IDH1 [1] = biological target: T1, wt IDH1 (Homo sapiens, UniProt O75874); experiment: Isothermal titration calorimetry (ITC), binding to wt IDH1; conditions: alone, EDTA-treated wt IDH1, 50 mM Tris-HCl, pH 7.5
T1 construct: made in house; host or cells: Escherichia coli BL21(DE3) pLyS

wt IDH1 [2] = biological target: T1, wt IDH1; experiment: Absorbance assay: kinetics of reductive reaction (2OG to isocitrate) by wt IDH1; type: biochemical; conditions: wt IDH1, reductive reaction with Mg^2+
Description: (§1) All experiments were performed in (at least) triplicate.
(§2) KM values were determined by varying concentrations of the substrate/cofactor under investigation while maintaining the concentrations of other components using standard conditions. […] Graphs were fitted using GraphPad Prism to obtain kinetic parameters.

[3] = ITC, metal ion binding to DL-isocitrate; conditions: read-out: KD for metal ion binding to DL-isocitrate; metal ion (10 mM), DL-isocitrate (500 µM), 50 mM Tris-HCl, pH 7.5
Description: ITC experiments were conducted using a Malvern MicroCal PEAQ-ITC Automated machine. In general, the protein was prepared in 50 mM Tris-HCl ± 5 mM metal chloride salts at pH 7.5; substrates were dissolved in the same buffer. Four hundred microlitres of cell solution and 200 µL of titrant were transferred to an ITC plate. Titrations were conducted at 25 °C with an initial delay of 60 s and a stir speed of 750 r.p.m. The injection setup consisted of 19 injections that have one initial injection of 0.4 µL and 18 injections of 2.0 µL each with 150 s between the injections. The thermodynamic parameters were obtained using the MicroCal PEAQ-ITC analysis software.

wt IDH1 [4] = biological target: T1, wt IDH1; experiment: Differential scanning fluorimetry (DSF) thermal shift, wt IDH1; type: binding; conditions: for Δ in Tm: Fig. 2e; for thermal stabilisation: wt IDH1, Mg^2+ alone, 0.032–20 mM
Description: Thermal shift experiments were carried out using Sypro Orange dye and a CFX96 Touch^TM Real-Time PCR Detection System (Bio-Rad)[69]. […] The standard assay buffer contains 50 mM Tris-HCl at pH 7.5. Various concentrations of substrates were mixed with IDH1 for thermal stabilisation studies. […] Bio-Rad CFX Manager was used to determine the melting temperature, Tm.

wt IDH1 [5] = biological target: T1, wt IDH1; experiment: Absorbance assay (NADPH, 340 nm): kinetics of oxidative reaction (isocitrate to 2OG) by wt IDH1; type: biochemical
Description: as §1, §2

wt IDH1 [6] = biological target: T1, wt IDH1; experiment: Absorbance assay: effect of metal ions on catalysis and inhibition of wt IDH1; type: biochemical; conditions: wt IDH1, metal ions 10 mM
[7] = wt IDH1, oxidative reaction with Mg^2+ (10 mM MgCl2)

T1 sequence (O75874 2-414): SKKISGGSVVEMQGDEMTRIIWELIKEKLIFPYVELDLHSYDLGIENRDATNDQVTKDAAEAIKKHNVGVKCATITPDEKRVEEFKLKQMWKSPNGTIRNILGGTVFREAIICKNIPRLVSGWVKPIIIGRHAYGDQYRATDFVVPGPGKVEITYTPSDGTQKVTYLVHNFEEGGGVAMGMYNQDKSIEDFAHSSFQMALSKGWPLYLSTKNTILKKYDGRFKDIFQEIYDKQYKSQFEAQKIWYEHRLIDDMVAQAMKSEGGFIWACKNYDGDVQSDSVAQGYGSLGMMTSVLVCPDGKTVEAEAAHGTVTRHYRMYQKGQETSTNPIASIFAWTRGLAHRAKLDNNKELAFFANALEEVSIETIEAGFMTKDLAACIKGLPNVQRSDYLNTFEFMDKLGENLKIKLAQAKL

Kd (wt IDH1 [1]): > 8 mM
kcat (wt IDH1 [2]): 2.1 ± 0.1 s⁻¹
Kd [3]: 1.5 mM
Δ in Tm (wt IDH1 [4]; wt IDH1, 0.8 mM MgCl2, replicates): -0.3 °C and -0.1 °C (2×)
Δ in Tm (wt IDH1 [4]; wt IDH1, 4 mM MgCl2, replicates): -0.1 °C
Δ in Tm (wt IDH1 [4]; wt IDH1, 20 mM MgCl2, replicates): -0.5 °C and -0.1 °C (2×)
thermal stabilisation (wt IDH1 [4]): no thermal shift
thermal stabilisation (wt IDH1 [4]; listed as Mg^2+): does not stabilise
thermal stabilisation (shift in Tm) (wt IDH1 [4]; wt IDH1, divalent metal ions (5 mM), 50 mM Tris-HCl, pH 7.5): less stabilising effect
Velocity (wt IDH1 [5]; Fig. S2d, [MgCl2] 15.625 μM): 0.01053 µM/s and 0.01316 µM/s
Velocity (wt IDH1 [5]; Fig. S2d, [MgCl2] 500 μM): 0.09476 µM/s and 0.07896 µM/s
kcat (wt IDH1 [5]; wt IDH1, oxidative reaction with Mg^2+): 50 ± 4 s⁻¹
Km (wt IDH1 [5]; [7]): 36 ± 4 µM
Vmax (wt IDH1 [5]; [7]): 214 ± 5 nM/s
Km (wt IDH1 [5]; wt IDH1 isocitrate oxidation, in the presence of 150 mM NaCl): 94 µM
effect of metal ion on catalysis (wt IDH1 [6]): promoted
Structure (SMILES): [Cl-].[Cl-].[Mg+2] [MgCl2]
Velocity (wt IDH1 [5]; Fig. S2c, [MgCl2] 1.95312 μM): 0.01456 µM/s and 0.01492 µM/s and 0.01895 µM/s
Velocity (wt IDH1 [5]; Fig. S2c, [MgCl2] 3.90625 μM): 0.02158 µM/s and 0.02123 µM/s and 0.02246 µM/s
Velocity (wt IDH1 [5]; Fig. S2c, [MgCl2] 7.8125 μM): 0.03106 µM/s and 0.03492 µM/s and 0.04106 µM/s
Velocity (wt IDH1 [5]; Fig. S2c, [MgCl2] 15.625 μM): 0.05387 µM/s and 0.06159 µM/s and 0.06633 µM/s
Velocity (wt IDH1 [5]; Fig. S2c, [MgCl2] 31.25 μM): 0.08809 µM/s and 0.1025 µM/s and 0.1206 µM/s
Velocity (wt IDH1 [5]; Fig. S2c, [MgCl2] 62.5 μM): 0.1304 µM/s and 0.136 µM/s and 0.1651 µM/s
Velocity (wt IDH1 [5]; Fig. S2c, [MgCl2] 250 μM): 0.1516 µM/s and 0.1788 µM/s and 0.1943 µM/s
Velocity (wt IDH1 [5]; Fig. S2c, [MgCl2] 500 μM): 0.1764 µM/s and 0.1771 µM/s and 0.2318 µM/s
Velocity (wt IDH1 [5]; Fig. S2c, [MgCl2] 1000 μM): 0.1957 µM/s and 0.2076 µM/s and 0.2279 µM/s
Velocity (wt IDH1 [5]; Fig. S2c, [MgCl2] 2000 μM): 0.2057 µM/s and 0.2199 µM/s and 0.2304 µM/s
Velocity (wt IDH1 [5]; Fig. S2d, [MgCl2] 31.25 μM): 0.02369 µM/s and 0.03159 µM/s and 0.03685 µM/s
Velocity (wt IDH1 [5]; Fig. S2d, [MgCl2] 62.5 μM): 0.03422 µM/s and 0.03685 µM/s and 0.04738 µM/s
Velocity (wt IDH1 [5]; Fig. S2d, [MgCl2] 250 μM): 0.0737 µM/s and 0.08423 µM/s and 0.07633 µM/s
Velocity (wt IDH1 [5]; Fig. S2d, [MgCl2] 1000 μM): 0.1027 µM/s and 0.08949 µM/s and 0.09476 µM/s
Velocity (wt IDH1 [5]; Fig. S2d, [MgCl2] 2000 μM): 0.08949 µM/s and 0.1079 µM/s and 0.09212 µM/s

— PMC8560763, “Roles of metal ions in the selective inhibition of oncogenic variants of isocitrate dehydrogenase 1” (Communications Biology, 2021)
